# Laboratory results taken from PubChem BioAssay AID1918931 (Molecular Pharmacology Branch, DTP, NCI, 2023).
# pIC50: −log10 of the molar value.
# Tested on: 138582-337-R-J1-PDC complex spheroid viability
# Assay: Anticancer human tumor 138582-337-R-J1-PDC patient-derived Merkel cell tumor cell line growth inhibition
# Conditions: for pIC50: curve of first compound; for viability, T/C: stronger effect = lower value
# Method in brief: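 Multicellular complex spheroids of tumor cells with human endothelial cells (HUVEC) and mesenchymal stem cells; the LSD1 inhibitor iadademstat was combined with standard-of-care or investigational agents. Top concentration at or near clinical Cmax, half-log dilutions; final DMSO ≤0.25%.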
# [1] = second compound 0.1 µM, first compound 0.0316 µM
# [2] = second compound 0.1 µM, first compound 0.1 µM
# [3] = second compound 0.1 µM, first compound 0.316 µM
# [4] = second compound 0.1 µM, first compound 1 µM
# [5] = second compound 0.1 µM, first compound 3.16 µM
# [6] = second compound 0.1 µM, first compound 10 µM
# [7] = second compound 0.316 µM, first compound 0.0316 µM
# [8] = second compound 0.316 µM, first compound 0.1 µM
# [9] = second compound 0.316 µM, first compound 0.316 µM
# [10] = second compound 0.316 µM, first compound 1 µM
# [11] = second compound 0.316 µM, first compound 3.16 µM
# [12] = second compound 0.316 µM, first compound 10 µM
# [13] = second compound 1 µM, first compound 0.0316 µM
# [14] = second compound 1 µM, first compound 0.1 µM
# [15] = second compound 1 µM, first compound 0.316 µM
# [16] = second compound 1 µM, first compound 1 µM
# [17] = second compound 1 µM, first compound 3.16 µM
# [18] = second compound 1 µM, first compound 10 µM
# [19] = second compound 3.16 µM, first compound 0.0316 µM
# [20] = second compound 3.16 µM, first compound 0.1 µM
# [21] = second compound 3.16 µM, first compound 0.316 µM
# [22] = second compound 3.16 µM, first compound 1 µM
# [23] = second compound 3.16 µM, first compound 3.16 µM
# [24] = second compound 3.16 µM, first compound 10 µM
# [25] = second compound 10 µM, first compound 0.0316 µM
# [26] = second compound 10 µM, first compound 0.1 µM
# [27] = second compound 10 µM, first compound 0.316 µM
# [28] = second compound 10 µM, first compound 1 µM
# [29] = second compound 10 µM, first compound 3.16 µM
# [30] = second compound 10 µM, first compound 10 µM
# 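Note: spheroids exposed to agents for 7 days.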
# 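Throughout, for viability, T/C: 100% = DMSO vehicle control viability.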
Compound,pIC50 (second compound 0.1 µM),pIC50 (second compound 0.316 µM),pIC50 (second compound 1 µM),pIC50 (second compound 3.16 µM),pIC50 (second compound 10 µM),"viability, T/C [1] [%]","viability, T/C [2] [%]","viability, T/C [3] [%]","viability, T/C [4] [%]","viability, T/C [7] [%]","viability, T/C [8] [%]","viability, T/C [9] [%]","viability, T/C [10] [%]","viability, T/C [13] [%]","viability, T/C [14] [%]","viability, T/C [15] [%]","viability, T/C [16] [%]","viability, T/C [19] [%]","viability, T/C [20] [%]","viability, T/C [21] [%]",further results
CC(C)c1c(-c2ccccc2)nc2c(C#N)c[nH]n2c1=O + NC1CCC(NC2CC2c2ccccc2)CC1,< 5.00,< 5.00,< 5.00,< 5.00,< 5.00,104,103,93.8,92.3,94.2,102,94.8,82,86.3,93.9,85.7,92,90,86.5,97.3,"viability, T/C [5]: 86%; viability, T/C [6]: 89.7%; viability, T/C [11]: 97.1%; viability, T/C [12]: 102%; viability, T/C [17]: 90%; viability, T/C [18]: 106%; viability, T/C [22]: 79.5%; viability, T/C [23]: 81.5%; viability, T/C [24]: 83.5%; viability, T/C [25]: 96.7%; viability, T/C [26]: 82.7%; viability, T/C [27]: 73.4%; viability, T/C [28]: 88.2%; viability, T/C [29]: 80.4%; viability, T/C [30]: 79.7%"
CC1COCCN1c1cc(-c2ccnn2C)c2ccnc(-c3ccn[nH]3)c2n1 (stereo not given) + NC1CCC(NC2CC2c2ccccc2)CC1,6.36,6.64,6.34,6.48,6.48,77.4,75.8,53.8,36.7,91.3,65,47.9,38.2,80,70,50.3,44.7,77.3,69.2,47.9,"viability, T/C (second compound 0.1 µM, first compound 0.00316 µM): 90.8%; viability, T/C (second compound 0.1 µM, first compound 0.01 µM): 91.8%; viability, T/C (second compound 0.316 µM, first compound 0.00316 µM): 76.9%; viability, T/C (second compound 0.316 µM, first compound 0.01 µM): 104%; viability, T/C (second compound 1 µM, first compound 0.00316 µM): 110%; viability, T/C (second compound 1 µM, first compound 0.01 µM): 101%; viability, T/C (second compound 3.16 µM, first compound 0.00316 µM): 89%; viability, T/C (second compound 3.16 µM, first compound 0.01 µM): 77.9%; viability, T/C [22]: 40.1%; viability, T/C (second compound 10 µM, first compound 0.00316 µM): 75.7%; viability, T/C (second compound 10 µM, first compound 0.01 µM): 73.4%; viability, T/C [25]: 72.6%; viability, T/C [26]: 67.4%; viability, T/C [27]: 50.2%; viability, T/C [28]: 42.6%"
COc1ccc([C@@H](O)c2cc(-c3ncnc4cc(N5CCOCC5)ccc34)c(F)cc2Cl)nn1 + NC1CCC(NC2CC2c2ccccc2)CC1,5.81,5.59,5.83,5.74,5.85,80.6,96.2,76.5,54.6,76.4,77.3,62.6,63.1,83.1,74.5,71.7,50.3,81.1,90.1,69.1,"viability, T/C [5]: 44.9%; viability, T/C [6]: 32.9%; viability, T/C [11]: 46.8%; viability, T/C [12]: 33.3%; viability, T/C [17]: 44.7%; viability, T/C [18]: 33.7%; viability, T/C [22]: 61.2%; viability, T/C [23]: 40.7%; viability, T/C [24]: 24.2%; viability, T/C [25]: 87.2%; viability, T/C [26]: 72.5%; viability, T/C [27]: 75.9%; viability, T/C [28]: 47.1%; viability, T/C [29]: 43.4%; viability, T/C [30]: 14.2%"
